The text below walks through data of PMC8360007, “Stereoselective Access to Antimelanoma Agents by Hybridization and Dimerization of Dihydroartemisinin and Artesunic acid” (Chemmedchem, 2021).

In data set [1] the test system is metastatic melanoma cancer cell line RPMI7951. The data set is described as follows: cell survival MTT assay on metastatic melanoma cancer cell line RPMI7951. It counts as cell-based. Particulars: Homo sapiens, RPMI-7951, read-out: IC50±SD RPMI7951. As for the experimental part:
(§1) The anticancer‐activity of DHA and ART hybrids 7‐β, 12‐β, 13‐α, 14‐α, 15‐α, and 16‐α, and of DHA and ART dimers 17‐α,α, 18‐α,α, 19‐β,β, 20‐α,α, 21‐α,α and 22‐α,α, was evaluated by the cell survival MTT assay on metastatic melanoma cancer cell line RPMI7951. Artemisinin 1, DHA 2, ART 3, hybrids 5–7, dimer 8, and commercially available drug paclitaxel (Taxol) were used as reference. In addition, data were compared with experiments performed on normal human primary fibroblast cell line (C3PV). Table 1 reports the IC50 (half‐maximal inhibitory concentration) and CC50 (half‐maximal cytotoxic concentration) values of the tested compounds.
(§2) The primary human fibroblast C3PV cell line was treated according to Botta et al.[27] Metastatic melanoma cell line (RPMI7951) was grown in Eagle's Minimum Essential Medium (EMEM) containing 15 % and 10 % FBS respectively, in addition to penicillin (100 U/ml) and streptomycin (1 mg/ml). The cell lines were maintained at 37 °C in a humidified atmosphere (95 %) in the presence of 5.0 % CO2. Prostate cancer (PC3) and breast cancer (MDA‐MB‐231) cell lines were raised in DMEM/F12 and RMPI1640 medium, respectively. To the medium was added 10 % FBS, 1 mM Glutammine and 40 μg/ml of Gentamicin. All cell lines were mantained at 37 °C in a humidified atmosphere (95 %) in the presence of 5.0 of CO2.
To study the effect of artemisinin and its derivatives on cell viability C3PV, RPMI7951, PC3, MDA‐MB‐231 cell lines were seeded in 96‐well plates (6000 cells/well in 100 μl medium) and incubated overnight to allow cell adherence. After, the medium was replaced with fresh medium containing the appropriate dose of compound. Artemisinin and its derivatives were used in a range of […] for 24 h. The analyses of cell viability were done at the end of treatment. […]
(§3) The CC50 and IC50 values were determined by non‐linear regression using the program graphpad prism 6.
(§4) Cell viability was evaluated using MTT cell proliferation assay. Briefly, after incubation for 3 h at 37 °C with MTT (0.5 mg/ml) the supernatant was replaced with 100 μl of a lysis solution containing 10 % SDS, 0.6 % Acetic acid in DMSO to dissolve the formazan crystals. Optical density measurements were performed with a scanning spectrophotometer DTX880 Multimode Detector (Beckman Coulter) using a 630 nm (background) and a 570 nm filter.

Data set [2] is described as follows: MTT cell viability (cytotoxicity) on normal human primary fibroblast C3PV. It counts as cell-based. As for the experimental part:
as §1, §2
(§5) To study the effect of artemisinin and its derivatives on cell viability C3PV, RPMI7951, PC3, MDA‐MB‐231 cell lines were seeded in 96‐well plates (6000 cells/well in 100 μl medium) and incubated overnight to allow cell adherence. After, the medium was replaced with fresh medium containing the appropriate dose of compound. […] The analyses of cell viability were done at the end of treatment. The assays were performed in quadruplicate for both treatments.
as §3, §4

Test in data set [3]: as above
It counts as cell-based. Particulars: C3PV normal primary fibroblast cells, 24 h treatment, triplicate, read-out: CC50±SD C3PV.

Data set [4] has as its system human breast (MDA‐MB‐231) cancer cell line. The data set is described as follows: MTT cell viability on breast cancer MDA‐MB‐231 cell line. It counts as cell-based. Particulars: triplicate, read-out: IC50±SD MDA‐MB‐231. As for the experimental part:
(§6) The effect of dimers 20–22‐α,α was further evaluated against other tumour types, such as human prostate and breast cancers in PC3 and MDA‐MB‐231 cell lines, respectively (Table 2).
as §2, §5, §4

In data set [5] the test system is human prostate (PC3) cancer cell line. The data set is described as follows: MTT cell viability on prostate cancer PC3 cell line. Particulars: PC-3, triplicate, read-out: IC50±SD PC3. It counts as cell-based. As for the experimental part:
as §6, §2, §5, §4

In data set [6] the test system is metastatic melanoma cancer cell line RPMI7951. On the set-up: method as in PMID 31956771. Particulars: cited from earlier work.
The test system of data set [7] is normal human primary fibroblast cell line (C3PV). On the set-up: method as in PMID 31956771. Particulars: cytotoxicity data from ref. 12; read-out: CC50±SD C3PV; cited from earlier work.
Data set [8] can be described thus: stability in assay medium by HPLC. It counts as physicochemical. Particulars: 24 and 48 hours, 25 °C, pH=7, in comparison with artesunic acid 3.
Where [9] appears, read: MTT, 24 h treatment, triplicate.
Setting [10] is: antimelanoma data from ref. 12, read-out: IC50±SD RPMI7951.

Like-named read-outs stand apart in the source and are kept apart here.

As a reminder, the IC50 is the concentration needed to halve the response being measured. By CC50 is commonly meant the concentration at which the toxic effect on the cells reaches its halfway point. In the case of `CC1CCC2C(C)C(Oc3ccc(CCO)cc3)OC3OC4(C)CCC1C32OO4` (stereo not drawn) [7‐β], in data set [1] (setting [9]), the IC50 was determined as 0.2 ± 0.01 µM. The compound further showed a cytotoxic concentration (CC50) at 24 h in data set [2] of 1.14 ± 0.45 µM.

In the case of `CC1CCC2C(C)C(OCCc3ccc(O)cc3)OC3OC4(C)CCC1C32OO4` (stereo not drawn) [12‐β], the concentration for half-maximal inhibition (IC50) in data set [1] (setting [9]) was found to be 0.4 ± 0.03 µM. It took 38.1 ± 2.56 µM to reach half-maximal cytotoxicity in data set [2] (CC50 at 24 h).

For the compound `C[C@H]1[C@H](OC(=O)CCC(=O)NCCc2ccc(O)cc2)O[C@@H]2O[C@@]3(C)CC[C@H]4[C@H](C)CC[C@@H]1[C@@]24OO3` [13‐α], the IC50 in data set [1] (setting [9]) was 1.7 ± 0.03 µM. The compound also showed a CC50 at 24 h in data set [2] of 3.39 ± 0.05 µM.

`COC(=O)C(Cc1ccc(O)cc1)NC(=O)CCC(=O)O[C@@H]1O[C@@H]2O[C@@]3(C)CC[C@H]4[C@H](C)CC[C@@H]([C@H]1C)[C@@]24OO3` (stereo partly drawn) [14‐α]: the half-inhibitory concentration (IC50) in data set [1] (setting [9]) was 1.3 ± 0.07 µM. Moreover, half-maximal cytotoxicity in data set [2] (CC50 at 24 h) was put at 6.38 ± 1.5 µM.

In the case of `C[C@H]1[C@H](OC(=O)CCC(=O)Oc2ccc(CO)cc2)O[C@@H]2O[C@@]3(C)CC[C@H]4[C@H](C)CC[C@@H]1[C@@]24OO3` [15‐α], the IC50 in data set [1] (setting [9]) was 2.5 ± 0.05 µM. This compound also came in with a 50% cytotoxic concentration (CC50) at 24 h in data set [2] of 55.2 ± 7.33 µM.

Regarding `C[C@H]1[C@H](OC(=O)c2ccccc2C(=O)O)O[C@@H]2O[C@@]3(C)CC[C@H]4[C@H](C)CC[C@@H]1[C@@]24OO3` [16‐α], in data set [1] (setting [9]), the half-inhibitory concentration (IC50) was 4.6 ± 0.03 µM. This compound returned a CC50 at 24 h in data set [2] of 8.14 ± 0.85 µM.

As for `C[C@H]1[C@H](OC(=O)CCC(=O)O[C@@H]2O[C@@H]3O[C@@]4(C)CC[C@H]5[C@H](C)CC[C@@H]([C@H]2C)[C@@]35OO4)O[C@@H]2O[C@@]3(C)CC[C@H]4[C@H](C)CC[C@@H]1[C@@]24OO3` [17‐α,α], in data set [1] (setting [9]), the half-inhibitory concentration (IC50) is 0.07 ± 0.01 µM. Moreover, the CC50 at 24 h in data set [3] came out at 0.25 ± 0.03 µM.

For the compound `C[C@H]1[C@H](OC(=O)c2ccccc2C(=O)O[C@@H]2O[C@@H]3O[C@@]4(C)CC[C@H]5[C@H](C)CC[C@@H]([C@H]2C)[C@@]35OO4)O[C@@H]2O[C@@]3(C)CC[C@H]4[C@H](C)CC[C@@H]1[C@@]24OO3` [18‐α,α], in data set [1] (setting [9]), the concentration for half-maximal inhibition (IC50) was found to be 10.8 ± 1.6 µM. The 50% cytotoxic concentration (CC50) at 24 h in data set [2] worked out at 8 ± 0.1 µM.

`C[C@H]1[C@@H](OCCCCO[C@H]2O[C@@H]3O[C@@]4(C)CC[C@H]5[C@H](C)CC[C@@H]([C@H]2C)[C@@]35OO4)O[C@@H]2O[C@@]3(C)CC[C@H]4[C@H](C)CC[C@@H]1[C@@]24OO3` [19‐β,β]: in data set [1] (setting [9]), the IC50 was found to be 3.6 ± 0.95 µM. This compound also had a CC50 at 24 h in data set [2] of 5.7 ± 0.79 µM.

Consider `CC1CCC2C(C)C(OC(=O)CCC(=O)NCCc3ccc(OC(=O)CCC(=O)OC4OC5OC6(C)CCC7C(C)CCC(C4C)C57OO6)cc3)OC3OC4(C)CCC1C32OO4` (stereo not drawn) [20‐α,α], for which the IC50 was determined as 1.3 ± 0.85 µM in data set [4], 2.45 ± 0.05 µM in data set [1] (setting [9]), 2.45 ± 0.05 µM in data set [1] (in absence of DFO) and 2.3 ± 0.35 µM in data set [5]. In data set [2], the CC50 at 24 h stood at 228 ± 1.5 µM.

With `COC(=O)C(Cc1ccc(OC(=O)CCC(=O)OC2OC3OC4(C)CCC5C(C)CCC(C2C)C35OO4)cc1)NC(=O)CCC(=O)OC1OC2OC3(C)CCC4C(C)CCC(C1C)C24OO3` (stereo not drawn) [21‐α,α], the IC50 in data set [4] stood at 3.08 ± 0.85 µM; in data set [1] (setting [9]), 1.76 ± 0.03 µM; in data set [1] (in absence of DFO), 1.76 ± 0.03 µM; in data set [5], 3.04 ± 0.34 µM. This compound also displayed a CC50 at 24 h in data set [2] of more than 300 µM.

Regarding `C[C@@H]1CC[C@H]2[C@@H](C)C(=O)O[C@@H]3O[C@@]4(C)CC[C@@H]1[C@]32OO4` [Compound 1, artemisinin], the IC50 in data set [1] (setting [9]) turned out to be 3.62 ± 0.99 µM. Moreover, the 50% cytotoxic concentration (CC50) at 24 h in data set [3] is more than 300 µM.

Take `C[C@H]1[C@@H](O)O[C@@H]2O[C@@]3(C)CC[C@H]4[C@H](C)CC[C@@H]1[C@@]24OO3` [Compound 2, dihydroartemisinin]: the IC50 in data set [1] (setting [9]) amounted to 0.91 ± 0.45 µM. It took 0.68 ± 0.19 µM to reach half-maximal cytotoxicity in data set [2] (CC50 at 24 h).

Turning to `C[C@H]1[C@H](OC(=O)CCC(=O)O)O[C@@H]2O[C@@]3(C)CC[C@H]4[C@H](C)CC[C@@H]1[C@@]24OO3` [Compound 3, artesunic acid], the concentration for half-maximal inhibition (IC50) in data set [1] (setting [9]) came to 1.08 ± 0.56 µM. Also, the CC50 at 24 h in data set [3] turned out to be 1.68 ± 0.44 µM.

In the case of `C[C@@H]1CC[C@H]2[C@@H](C)C(OCCc3ccc(O)cc3)O[C@@H]3O[C@@]4(C)CC[C@@H]1[C@]32OO4` (stereo partly drawn) [Compound 5], in data set [6] (setting [10]), the IC50 was 0.33 ± 0.08 µM. In addition, in data set [7], the cytotoxic concentration (CC50) was 1.76 ± 0.31 µM.

For the compound `C[C@@H]1CC[C@H]2[C@@H](C)C(OC(=O)CCC(=O)OCCc3ccc(O)cc3)O[C@@H]3O[C@@]4(C)CC[C@@H]1[C@]32OO4` (stereo partly drawn) [Compound 6], in data set [6] (setting [10]), the IC50 was 8.34 ± 3.06 µM. For the same compound, the 50% cytotoxic concentration (CC50) in data set [7] is more than 300 µM.

For the compound `C[C@@H]1CC[C@H]2[C@@H](C)C(OC(=O)CCC(=O)Oc3ccc(CCO)cc3)O[C@@H]3O[C@@]4(C)CC[C@@H]1[C@]32OO4` (stereo partly drawn) [Compound 7], the IC50 in data set [6] (setting [10]) was 0.09 ± 0.03 µM. For the same compound, in data set [7], the CC50 is 132 ± 12.6 µM.

As for `CC1CCC2C(C)C(OC(=O)CCC(=O)OCCc3ccc(OC(=O)CCC(=O)OC4OC5OC6(C)CCC7C(C)CCC(C4C)C57OO6)cc3)OC3OC4(C)CCC1C32OO4` (stereo not drawn) [Compound 8], the 50% inhibitory concentration (IC50) was 0.49 ± 0.05 µM in data set [6] (setting [10]) and 1.37 ± 0.13 µM in data set [6] (introduction, earlier library, read-out: IC50 against RPMI‐7951 cell line). Further, the CC50 in data set [7] is 6.1 ± 3.74 µM.

In the case of `CC1CCC2C(C)C(OC(=O)CCC(=O)OCc3ccc(OC(=O)CCC(=O)OC4OC5OC6(C)CCC7C(C)CCC(C4C)C57OO6)cc3)OC3OC4(C)CCC1C32OO4` (stereo not drawn) [Compound 22‐α,α], the “stability after exposition to assay medium (HPLC)” value in data set [8] is “good stability”. Moreover, the IC50 in data set [4] is 2.4 ± 0.95 µM; in data set [1] (setting [9]), 0.05 ± 0.02 µM; in data set [1] (in absence of DFO), 0.05 ± 0.02 µM; in data set [5], 3.1 ± 0.19 µM. The 50% cytotoxic concentration (CC50) at 24 h in data set [2] was more than 300 µM.

`CC(=O)O[C@H]1C(=O)[C@@]2(C)[C@H]([C@H](OC(=O)c3ccccc3)[C@]3(O)C[C@H](OC(=O)[C@H](O)[C@@H](NC(=O)c4ccccc4)c4ccccc4)C(C)=C1C3(C)C)[C@]1(OC(C)=O)CO[C@@H]1C[C@@H]2O` [Paclitaxel, paclitaxel, reference compound]: the IC50 in data set [1] (setting [9]) turned out to be 0.013 µM. The CC50 at 24 h in data set [2] was determined as 78.9 ± 0.79 µM.
